# Assay results published in ChEMBL document CHEMBL3507680, “University of Dundee, Gates Library screen for HepG2 cell viability”.
# Assay: Human HepG2 cell viability assay in 384 well format
# Assay type: toxicity, cell-based
# Design: dose 125 nL, time 70.5 hour; concentration not given beside the values
# Details: HepG2 cells, read-out: Inhibition
row,Compound,cytotoxicity at 70.5 h [%]
1,O=C(CNC(=O)c1ccccc1F)NCc1ccccn1,-7.71
2,Cc1ccnn1CCNC(=O)C1CCN(S(=O)(=O)c2ccc(F)cc2)C1 (centres undefined),6.47
3,CCN1CCCC(O)(c2nc(C)c(CCOc3ccc(F)cc3)s2)CC1 (centres undefined),13.4
4,CN(C)S(=O)(=O)N1CCC(c2ccncc2)CC1,-10.2
5,CNc1nc(C2CCCN(C(=O)C(C)C)C2)nc2c1CN(C)CC2 (centres undefined),9.57
6,CN(C)S(=O)(=O)N1CCC(c2ccncn2)CC1,-11.3
7,Cc1nc(Nc2ncc(C)s2)cc(C2CCCN2S(C)(=O)=O)n1 (centres undefined),-13.7
8,CS(=O)(=O)N1CCCC1c1cccc(Nc2nccs2)n1 (centres undefined),28.9
9,Cc1cnc2cc(C3CCN(C(=O)c4ccncc4)CC3)[nH]c2n1,-12.8
10,CC1(C(=O)NC2CCCC2)CN(c2cnccn2)CCO1 (centres undefined),-13.6
11,COc1cccc([C@H]2CN(C(=O)c3ccccc3)[C@@H]3CCCN[C@H]23)c1,15.6
12,c1cnc(N2CCCC(c3cc4cccnc4[nH]3)C2)nc1 (centres undefined),-8.49
13,COCc1ccc(C(=O)N2CCC(c3cc4ncc(C)nc4[nH]3)C2)cc1 (centres undefined),-4.31
14,c1cnc(N2CCC(c3cc4cccnc4[nH]3)CC2)nc1,-5.37
15,O=C(c1cc[nH]n1)N1CCCC1c1cnccn1 (centres undefined),-10.5
16,COCC(=O)N1CC(c2csc(NC(C)=O)n2)C1,-3.83
17,CNC(=O)c1cn[nH]c1C1CCN(Cc2sccc2C)C1 (centres undefined),-5.33
18,CNC(=O)c1cn[nH]c1C1CCN(Cc2cccc(C)c2OC)C1 (centres undefined),-3.82
19,CN(C)c1nccc(C2CCN(C(=O)CO)CC2)n1,13.9
20,CC(=O)N1CCN(CCOc2ccc(F)cc2)CC(C(N)=O)C1 (centres undefined),-9.44

row,Compound,cytotoxicity at 70.5 h [%]
1,Cc1c(CN2C[C@@H](O)[C@H](Oc3cccc(F)c3)C2)cnn1C,-10.7
2,CC1(C(=O)N2CCN(C3CCCC3)CC2)CNCCO1 (centres undefined),-7.45
3,O=C(O)c1ccccc1CN1CCC(c2ccnc3ccnn23)CC1,-4.52
4,COC(=O)[C@H]1CN(C(=O)c2cscn2)C[C@@H]1c1ccc(F)cc1,0.296
5,COc1ccc(CC(=O)NC(C)c2nc3cccnc3n2C(C)C)cc1 (centres undefined),2.45
6,CCc1c(C)noc1-c1cnc(NC2CC2)nc1-c1cnc(C)cn1,-7.43
7,Oc1ccc(C2Nc3ccccc3C3=NCCCN32)cc1 (centres undefined),-2.33
8,O=C(c1cc[nH]n1)N1CCCC1c1ccccn1 (centres undefined),-4.38
9,O=C(NC1CC1)C1(Cc2ccccc2-c2ccncc2)CCOCC1,7.42
10,O=C(CCn1c(C(F)F)cc2cccnc21)NC1CC1,-5.74
11,Cc1cc2c(=O)n3c(nc2s1)CCN(C(=O)c1nn(C)cc1Cl)CC3,-4.02
12,CCn1cc(S(=O)(=O)NCC2(N3CCOCC3)CCCCC2)c(C)n1,28.1
13,Cc1nn(C)cc1S(=O)(=O)NC1(CN2CCOCC2)CCCCC1,-3.14
14,Cc1cc(-c2cnc(C(C)C)nc2CN(C)C(=O)c2ccccn2)on1,-6.43
15,CCOCC(=O)N1CCC(c2cc3ncccc3c(O)n2)CC1,-6.58
16,CC(C)(C)c1nnc(NCC(=O)N2CCc3sccc3C2)s1,-10.5
17,COc1ccc(CCNC(=O)NCc2cccc(C(N)=O)c2)cc1OC,-15
18,CC(C)(NC(=O)c1scnc1Cl)c1ccccc1,-12.8
19,CCCc1c(C(=O)N2CCN(Cc3ccccn3)CC2)cnn1C,-14.7
20,CCCc1c(C(=O)N2CCN(c3cnccn3)CC2)cnn1C,-14.4

row,Compound,cytotoxicity at 70.5 h [%]
1,CCN1CCN(C(=O)c2cc(F)cc3nc(C)c(C)nc23)CC1,-12.2
2,Cn1ccc(CS(=O)(=O)Cc2cccc(F)c2)cc1=O,-11
3,Cc1ccc(C)c(CS(=O)(=O)Cc2ccn(C)c(=O)c2)c1,-7.9
4,N#Cc1cc(F)ccc1Cn1cncn1,-9.13
5,COc1ccc(CNCCc2cccc(C(N)=O)c2)cc1C,11.7
6,Cc1cn2c(n1)CCC(NC(=O)c1ccc(OCC3CC3)nc1)C2 (centres undefined),-3.71
7,CC(C)c1nsc(N2CCn3c(nnc3-c3ccccc3)C2)n1,-7.62
8,O=C(Cc1cccc(F)c1F)NS(=O)(=O)c1ccc(Cl)cn1,-6.06
9,O=C(CNc1nc(C(F)(F)F)cs1)N1CCc2sccc2C1,-8.73
10,FC(F)(F)CCN(Cc1ccon1)C1CCCC1,-7.02
11,COc1cccc(CNCCc2cccc(C(N)=O)c2)c1,-8.65
12,CNc1nc(CS(=O)(=O)c2ccccc2)cs1,-7.87
13,CCOCCN1CCN(CCc2ccc3c(c2)CCO3)CC1,12.7
14,NC(=O)CNC(c1ccccc1)c1ccccc1,17.2
15,N#CC1(C(=O)N2CCOC(c3ccc(F)cc3)C2)CCCCC1 (centres undefined),-9.88
16,CN(C)S(=O)(=O)NC1CC(=O)N(c2ccccc2Cl)C1 (centres undefined),-17.3
17,COCC(=O)Nc1nnc2n(Cc3cccc(OC)c3)[nH]c(C)c1-2,-5.86
18,CC(C)c1nnc2n1CCN(C(C(N)=O)c1ccc(F)cc1)C2 (centres undefined),-21.3
19,CC(C)(C)CNC(=O)c1ccc(C(=O)O)cc1,-5.94
